The experiment has as its target T1, human DGAT1 (Homo sapiens, UniProt O75907).
T1 construct: (N); made in house; host or cells: Sf9 insect cells infected with recombinant baculovirus BAC-DGAT1; microsome fraction
T1 sequence (O75907 1-488): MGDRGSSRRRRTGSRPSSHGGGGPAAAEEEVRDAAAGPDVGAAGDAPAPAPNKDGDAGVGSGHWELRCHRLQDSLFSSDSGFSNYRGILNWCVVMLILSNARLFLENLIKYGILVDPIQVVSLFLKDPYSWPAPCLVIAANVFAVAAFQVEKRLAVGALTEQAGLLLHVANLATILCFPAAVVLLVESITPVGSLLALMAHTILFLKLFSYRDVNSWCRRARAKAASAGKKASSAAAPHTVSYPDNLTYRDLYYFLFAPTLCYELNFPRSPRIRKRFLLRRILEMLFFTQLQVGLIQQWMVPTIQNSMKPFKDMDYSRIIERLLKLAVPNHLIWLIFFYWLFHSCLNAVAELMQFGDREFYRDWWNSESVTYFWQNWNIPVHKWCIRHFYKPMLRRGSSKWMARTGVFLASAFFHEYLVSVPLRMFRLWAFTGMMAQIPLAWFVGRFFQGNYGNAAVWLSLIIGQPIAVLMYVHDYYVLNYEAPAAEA
Put plainly: Determination of DGAT inhibitory activity (triglyceride synthesis with DGAT1 high expression Sf9 microsome). It counts as biochemical. The conditions noted are these: 25 μM dioleoylglycerol, 25 μM [14C]-Oleoyl-CoA, 32° C., 20 min, read-out: hDGAT1 IC50. The procedure:
Human DGAT1 gene was cloned by PCR using human adipocyte cDNA (Clontech, QUICK-Clone cDNA, human fat cell, cat #637220) as a template and, based on the DGAT1 gene information reported by Case, S. et al. (Proc. Natl. Acad. Sci. U.S.A. 95 (22), 13018-13023 (1998)), a nucleotide sequence (245-1711 of Genbank Accession No. NM_012079) encoding DGAT1 was amplified with the following PCR primer. The primer nucleotide sequence is shown below.
The PCR reaction was conducted using a KOD-plus kit (TOYOBO). The obtained PCR product was electrophoresed on agarose gel (1%), the DNA fragment amplified by PCR was recovered from the gel, and then digested with restriction enzymes EcoRI and SpeI. The DNA treated with the restriction enzymes was electrophoresed on agarose gel (1%), and the obtained DNA fragment was recovered and ligated with plasmid pFASTBAC1 (Invitrogen) digested with restriction enzymes EcoRI and SpeI to give expression plasmid pFB-DGAT1. The nucleotide sequence of the inserted fragment was confirmed and found to be identical with the nucleotide sequence of DGAT1 (245-1711 of Genbank Accession No. NM_012079). Furthermore, using BAC-TO-BAC Baculovirus Expression System (Invitrogen), recombinant baculovirus BAC-DGAT1 was prepared.
SF9 cells were sown at 1×10^6 cells/ml on Sf-900II SFM medium (1 L, Invitrogen) containing 10% fetal calf serum (Trace), 50 mg/L gentamicin (Invitrogen) and 0.1% Pluronic F-68 (Invitrogen), and shaking culture was performed using a 2 L volume Erlenmeyer flask at 27° C., 100 rpm. After culturing for 24 hrs, recombinant baculovirus BAC-DGAT1 (6.7 mL) was added, and the mixture was further cultured for 3 days. The culture medium was centrifuged at 2,000 rpm for 5 min to give virus-infected cells. The infected cells were washed with a phosphate buffered saline (Invitrogen), centrifuged under the same conditions, and the cells were preserved at −80° C. The cryopreserved cells were thawed in ice, suspended in buffer A (50 mM Tris buffer (30 mL, pH 7.4) containing 20% glycerol, 0.15 M NaCl) supplemented with Complete Protease Inhibitor (Boehringer), and ruptured 3 times with a Polytron homogenizer (Kinematica) at 20,000 rpm for 30 sec. The Sf9 microsome fractions were obtained by a conventional method and cryopreserved at −80° C. as a DGAT1 high expression Sf9 microsome.
As a DGAT1 reaction buffer, a solution having a composition of 100 mM Tris-HCl (pH 7.5), 250 mM sucrose, 150 mM MgCl2, 0.01% bovine serum albumin (BSA) was used. Using this buffer, a given concentration of the test compound and a composition (100 μl) of 25 μM dioleoylglycerol, 25 μM [^14C]-Oleoyl-CoA, 5 μg protein/ml DGAT1 high expression Sf9 microsome, and 1% acetone were subjected to a triglyceride synthesis reaction at 32° C. for 20 min. A mixture of 300 μL of chloroform:methanol (=1:2) was added to the reaction mixture to quench the reaction. The reaction mixture was sufficiently mixed and distilled water (200 μL) was added to partition the mixture between a chloroform layer (lower layer) and an aqueous layer (upper layer). The chloroform layer (50 μL) was spotted on a thin layer chromatography silica gel plate (TLC plate, Merck) and developed with a solvent (n-hexane:diethyl ether:ethyl acetate:acetic acid=255:30:15:0.6). The developed TLC plate was dried, contacted with a BAS imaging plate (manufactured by FUJIFILM) and measured with BAS2500 (manufactured by FUJIFILM) 16 hr later to numerically show the amount of [^14C]-triglyceride (TG amount) produced during the reaction. The inhibitory rate was calculated by the following formula:
Inhibitory rate (%)=(1−(TG amount with addition of test compound−blank TG amount)/(control TG amount−blank TG amount))×100 […]

In general, IC50 refers to the concentration that inhibits the measured activity by half.

On to `CC(C)c1nc2c(s1)CC(C(=O)NCCNC(=O)c1cn(-c3ccccc3)nc1C(F)(F)F)CC2` (stereo not shown) [Example E242, 2-isopropyl-N-(2-(1-phenyl-3-(trifluoromethyl)-1H-pyrazole-4-carboxamido)ethyl)-4,5,6,7-tetrahydrobenzo[d]thiazole-6-carboxamide], for which the IC50 lay in the range of 10 to 100 nM.

As for `O=C(NCCNC(=O)N1CCc2nc[nH]c2C1)c1cn(-c2ccccc2)nc1C(F)(F)F` [Example E95, N-(2-(1-phenyl-3-(trifluoromethyl)-1H-pyrazole-4-carboxamido)ethyl)-6,7-dihydro-3H-imidazo[4,5-c]pyridine-5(4H)-carboxamide], the half-inhibitory concentration (IC50) was in the range of 100 to 1000 nM.

For `CC(C)c1nnc([C@H]2CC[C@H](C(=O)NCCNC(=O)c3cn(-c4ccccc4)nc3C(F)(F)F)CC2)o1` [Example E163, N-(2-(trans-4-(5-isopropyl-1,3,4-oxadiazol-2-yl)cyclohexanecarboxamido)ethyl)-1-phenyl-3-(trifluoromethyl)-1H-pyrazole-4-carboxamide], the half-inhibitory concentration (IC50) lay within 10 to 100 nM.

For `O=C(NCCNC(=O)N1CCC(C(=O)c2ccccc2)C1)c1cn(-c2ccccc2)nc1C(F)(F)F` (stereo not shown) [Example E189, N-(2-(3-benzoylpyrrolidine-1-carboxamido)ethyl)-1-phenyl-3-(trifluoromethyl)-1H-pyrazole-4-carboxamide], the IC50 fell in the range of 10 to 100 nM.

With `O=C(NCCNC(=O)N1CCC(NS(=O)(=O)c2ccccc2)CC1)c1cn(-c2ccccc2)nc1C(F)(F)F` [Example E114, N-(2-(1-Phenyl-3-(trifluoromethyl)-1H-pyrazole-4-carboxamido)ethyl)-4-(phenylsulfonamido)piperidine-1-carboxamide], the IC50 was in the range of 100 to 1000 nM.

With `CC1CN(C(=O)NCCNC(=O)c2cn(-c3ccccc3)nc2C(F)(F)F)CCN1c1ccccc1` (stereo not shown) [Example E64, 3-methyl-4-phenyl-N-(2-(1-phenyl-3-(trifluoromethyl)-1H-pyrazole-4-carboxamido)ethyl)piperazine-1-carboxamide], the IC50 was in the range of 10 to 100 nM.

For `O=C(NCCNC(=O)C1CCN(S(=O)(=O)c2ccccc2)CC1)c1cn(-c2ccccc2)nc1C(F)(F)F` [Example E34, N-(2-(1-phenyl-3-(trifluoromethyl)-1H-pyrazole-4-carboxamido)ethyl)-1-(phenylsulfonyl)piperidine-4-carboxamide], the IC50 was 10 to 100 nM.

Regarding `O=C(NCCNC(=O)[C@H]1CC[C@H](C(=O)c2ccccc2)CC1)c1cn(-c2ccccn2)nc1C(F)(F)F` [Example E150, N-(2-(trans-4-benzoylcyclohexanecarboxamido)ethyl)-1-(pyridin-2-yl)-3-(trifluoromethyl)-1H-pyrazole-4-carboxamide], the IC50 was less than 10 nM.

For the molecule `CC(C)c1nc([C@H]2CC[C@H](C(=O)NCCNC(=O)c3cn(-c4ccccc4Cl)nc3C(F)(F)F)CC2)no1` [Example E257, 1-(2-chlorophenyl)-N-(2-(trans-4-(5-isopropyl-1,2,4-oxadiazol-3-yl)cyclohexanecarboxamido)ethyl)-3-(trifluoromethyl)-1H-pyrazole-4-carboxamide], the half-maximal inhibitory concentration (IC50) was in the range of 10 to 100 nM.

For `CC(C)c1nc(C2CCN(C(=O)NCCNC(=O)c3cn(-c4ccccc4)nc3C(F)(F)F)CC2)no1` [Example E225, 4-(5-isopropyl-1,2,4-oxadiazol-3-yl)-N-(2-(1-phenyl-3-(trifluoromethyl)-1H-pyrazole-4-carboxamido)ethyl)piperidine-1-carboxamide], the half-maximal inhibitory concentration (IC50) was in the range of 100 to 1000 nM.

Regarding `O=C(N[C@H]1CC[C@H](C(=O)NCCNC(=O)c2cn(-c3ccccc3)nc2C(F)(F)F)CC1)c1ccccc1` [Example E91, N-(2-(trans-4-Benzamidocyclohexanecarboxamido)ethyl)-1-phenyl-3-(trifluoromethyl)-1H-pyrazole-4-carboxamide], the IC50 was 100 to 1000 nM.

Consider `O=C(NCCNC(=O)N1CCC(C(=O)N2CCCC2)CC1)c1cn(-c2ccccc2)nc1C(F)(F)F` [Example E63, N-(2-(1-phenyl-3-(trifluoromethyl)-1H-pyrazole-4-carboxamido)ethyl)-4-(pyrrolidine-1-carbonyl)piperidine-1-carboxamide], for which the IC50 is 100 to 1000 nM.

For `O=C(NCCNC(=O)[C@H]1CC[C@H](C(=O)c2ccccc2)CC1)c1cn(-c2ccccc2)nc1C(F)(F)F` [Example E65, N-(2-(trans-4-benzoylcyclohexanecarboxamido)ethyl)-1-phenyl-3-(trifluoromethyl)-1H-pyrazole-4-carboxamide], the IC50 was 10 to 100 nM.

Take `CC(C)c1nc([C@H]2CC[C@H](C(=O)NCCNC(=O)c3cn(-c4ccccc4F)nc3C(F)(F)F)CC2)no1` [Example E260, 1-(2-fluorophenyl)-N-(2-(trans-4-(5-isopropyl-1,2,4-oxadiazol-3-yl)cyclohexanecarboxamido)ethyl)-3-(trifluoromethyl)-1H-pyrazole-4-carboxamide]: the IC50 lay in the range of 10 to 100 nM.

As to `O=C(NCCNC(=O)C1CCN(S(=O)(=O)c2cccnc2)CC1)c1cn(-c2ccccc2)nc1C(F)(F)F` [Example E74, N-(2-(1-phenyl-3-(trifluoromethyl)-1H-pyrazole-4-carboxamido)ethyl)-1-(pyridin-3-ylsulfonyl)piperidine-4-carboxamide], the IC50 was in the range of 10 to 100 nM.

On to `O=C(NCCNC(=O)[C@H]1CC[C@H](C(=O)c2ccccc2)CC1)c1cn(-c2ccccc2Cl)nc1C(F)(F)F` [Example E164, N-(2-(trans-4-benzoylcyclohexanecarboxamido)ethyl)-1-(2-chlorophenyl)-3-(trifluoromethyl)-1H-pyrazole-4-carboxamide], for which the IC50 was 10 to 100 nM.

For `O=C(NCCNC(=O)[C@H]1CC[C@H](c2n[nH]c(=O)o2)CC1)c1cn(-c2ccccc2)nc1C(F)(F)F` [Example E197, N-(2-(trans-4-(5-oxo-4,5-dihydro-1,3,4-oxadiazol-2-yl)cyclohexanecarboxamido)ethyl)-1-phenyl-3-(trifluoromethyl)-1H-pyrazole-4-carboxamide], the IC50 was in the range of 10 to 100 nM.

On to `O=C(NCCNC(=O)[C@H]1CC[C@H](C(=O)NCCF)CC1)c1cn(-c2ccccc2)nc1C(F)(F)F` [Example E165, trans-N1-(2-fluoroethyl)-N4-(2-(1-phenyl-3-(trifluoromethyl)-1H-pyrazole-4-carboxamido)ethyl)cyclohexane-1,4-dicarboxamide], for which the 50% inhibitory concentration (IC50) was in the range of 100 to 1000 nM.

Take `CC(C)c1nnc([C@H]2CC[C@H](C(=O)NCCNC(=O)c3cn(-c4ccccc4Cl)nc3C(F)(F)F)CC2)o1` [Example E234, 1-(2-chlorophenyl)-N-(2-(trans-4-(5-isopropyl-1,3,4-oxadiazol-2-yl)cyclohexanecarboxamido)ethyl)-3-(trifluoromethyl)-1H-pyrazole-4-carboxamide]: the IC50 fell in the range of 100 to 1000 nM.

Values taken from US20120065196A1, “AMIDE COMPOUNDS” (priority 2006, published 2012).
